Laboratory results: US10844013B2, “Phenyl amino piperidine mTORC inhibitors and uses thereof” (Navitor Pharmaceuticals, Inc., priority 2016, dated 2020)
Like-named read-outs stand apart in the source and are kept apart here.

Experiments:
[1] = test system: pS6K1 (p-p70 S6 Kinase (Thr389)) in MCF-7 cells; test: AlphaLISA Ultra pS6K1 assay; type: cell-based; conditions: 2 hours compound incubation
Procedure: Example 155: AlphaLISA Ultra pS6K1 assay
(§1) Assay Protocol: • 1. Seed MCF-7 cells in Corning 3701 plate and incubate for 20˜24 hour. 12,000˜16,000 cells will be seeded in 36 μL medium per well. • 2. Change the culture medium with fresh medium and incubate for another 2 hours. • 3. Add 12 μL (4×) compounds into the cell plate by HAMILTON. Final DMSO concentration is 0.5%. Incubate for 2 hours. • 4. Aspirate 38 μL by HAMILTON, 10 μL rest per well. • 5. Add 10 μL 2× lysis buffer using HAMILTON; total volume in wells is 20 μL. Allow cells to shake for 30 min. Cover plate by plastic foil and store plate at −80° C. up to analysis. • 6. Thaw cell lysate at RT and transfer 10 ul lysate to assay plate (Optiplate-384). • 7. Add 5 ul acceptor beads into assay plate and incubation for 2 hours • 8. Add 5 ul donor beads and incubation for 2 hours • 9. Count the plate by EnSpire Multimode Plate Reader

[2] = test system: pAKT (p-Akt 1/2/3 (Ser473)) in MCF-7 cells; test: AlphaLISA Ultra pAKT assay; type: cell-based
Procedure: Example 156: AlphaLISA Ultra pAKT Assay
as §1, with “1.” for “1. Seed”, “for 20-24” for “for 20˜24”, “hour. 16,000-20,000” for “hour. 12,000˜16,000”, “38 j L” for “38 μL”

[3] = Homo sapiens, MCF7, 2 hours compound incubation
[4] = 2 hours compound incubation, read-out: pAKT in MCF7: IC50

Row | IC50 ([1]; Homo sapiens, MCF7, 2 h) [nM] | IC50 [2, 3] [nM] | IC50 ([1]; read-out: pS6K1 in MCF7: IC50) [nM] | IC50 [2, 4] [nM] | SMILES
1 |  | > 10000 | 1000 to 3000 |  | Cc1ccc(C(=O)N2CCN(c3ccccc3)C(CO)C2)cc1NC1CCN(c2ccccc2C#N)CC1 (single isomer, unassigned) [I-84, 2-[4-({5-[(3R or S)-3-(hydroxymethyl)-4-phenylpiperazine-1-carbonyl]-2-methylphenyl}amino)piperidin-1-yl]benzonitrile]
2 |  |  | 10 to 1000 | > 10000 | Cc1ccc(C(=O)N2CCN(c3ccccc3)C(CO)C2)cc1NC1CCN(c2ccccc2C#N)CC1 (single isomer, unassigned) [I-85, 2-[4-({5-[(3S or R)-3-(hydroxymethyl)-4-phenylpiperazine-1-carbonyl]-2-methylphenyl}amino)piperidin-1-yl]benzonitrile]
3 | 10 to 1000 | > 10000 |  |  | Cc1cc(C)c(C(=O)N2CCN(c3cccc(F)c3[S@](C)(=N)=O)CC2)cc1NC1CCN(c2ccccc2C#N)CC1 (single isomer, unassigned) [I-89]
4 | 1000 to 3000 | > 10000 |  |  | Cc1cc(C)c(C(=O)N2CCN(c3ncccc3[S@](C)(=N)=O)CC2)cc1NC1CCN(c2ccccc2C#N)CC1 (single isomer, unassigned) [I-93]

More lines, now with the values behind:

Row | SMILES | IC50 ([1]; Homo sapiens, MCF7, 2 h) [nM] | IC50 [2, 3] [nM] | IC50 ([1]; read-out: pS6K1 in MCF7: IC50) [nM] | IC50 [2, 4] [nM]
5 | Cc1cc(C)c(C(=O)N2CCN(c3ccccn3)[C@H](CO)C2)cc1NC1CCN(c2ccccc2C#N)CC1 (single isomer, unassigned) [I-38, 2-[4-({5-[(3S or 3R)-3-(hydroxymethyl)-4-(pyridin-2-yl)piperazine-1-carbonyl]-2,4-dimethylphenyl}amino)piperidin-1-yl]benzonitrile] | 3000 to 5000 | > 10000 |  | 
6 | Cc1cc(C)c(C(=O)N2CCN(c3ccccc3)[C@H](CO)C2)cc1NC1CCN(c2ccccc2C#N)CC1 (single isomer, unassigned) [I-40, 2-[4-({5-[3S or R-(hydroxymethyl)-4-phenylpiperazine-1-carbonyl]-2,4-dimethylphenyl}amino)piperidin-1-yl]benzonitrile] | 10 to 1000 | > 10000 |  | 
7 | Cc1cc(C)c(C(=O)N2CCN(c3ccccc3)[C@@H](CO)C2)cc1NC1CCN(c2ccccc2C#N)CC1 (single isomer, unassigned) [I-41, 2-[4-({5-[3R or S-(hydroxymethyl)-4-phenylpiperazine-1-carbonyl]-2,4-dimethylphenyl}amino)piperidin-1-yl]benzonitrile] | 1000 to 3000 | > 10000 |  | 
8 | Cc1cc(C)c(C(=O)N2CCN(c3ccccc3S(C)(=N)=O)CC2)cc1NC1CCN(c2ccccc2C#N)CC1 (single isomer, unassigned) [I-50, 2-(4-{[5-(4-{2-[(R or S)-imino(methyl)oxo-λ^6-sulfanyl]phenyl}piperazine-1-carbonyl)-2,4-dimethylphenyl]amino}piperidin-1-yl)benzonitrile] |  |  | 1000 to 3000 | > 10000
9 | Cc1cc(C)c(C(=O)N2CCN(c3ccccc3C#N)[C@@H](CO)C2)cc1NC1CCN(c2ccccc2C#N)CC1 (single isomer, unassigned) [I-77, 2-[4-({5-[(3R or 3S)-4-(2-Cyanophenyl)-3-(hydroxymethyl)piperazine-1-carbonyl]-2,4-dimethylphenyl}amino)piperidin-1-yl]benzonitrile] | 10 to 1000 | > 10000 |  | 
10 | Cc1ccc(NC2CCN(c3ccccc3C#N)CC2)cc1C(=O)N1CCN(c2ccccc2)C(CO)C1 (single isomer, unassigned) [I-82, 2-[4-({3-[(3R or S)-3-(hydroxymethyl)-4-phenylpiperazine-1-carbonyl]-4-methylphenyl}amino)piperidin-1-yl]benzonitrile] |  | > 10000 | 3000 to 5000 | 
11 | Cc1ccc(NC2CCN(c3ccccc3C#N)CC2)cc1C(=O)N1CCN(c2ccccc2)C(CO)C1 (single isomer, unassigned) [I-83, 2-[4-({3-[(3S or R)-3-(hydroxymethyl)-4-phenylpiperazine-1-carbonyl]-4-methylphenyl}amino)piperidin-1-yl]benzonitrile] |  |  | 10 to 1000 | > 10000
